# According to ChEMBL document CHEMBL5696443 (Clin Cancer Res, 2016):
# pIC50: −log10 of the molar value. Activity calls are given as the source filed them. The calls are words filed in the database; no cut-off is given here.
# Legend:
# [1] = target: Myosin light chain kinase 2, skeletal/cardiac muscle (Homo sapiens) (UniProt Q9H1R3); assay: Inhibition of human MYLK2 at 1 uM using KKLNRTLSFAEPG as substrate in presence of [gamma33P]-ATP by HotSpot assay relative to control
# [2] = tested on: EML4-ALK (Homo sapiens), Q9UM73+Q9HC35 [C1156Y]; details: BaF3, dose 500.0 nmol/L, time 3-5 weeks
# [3] = tested on: NCI-H2228; assay: Antitumor activity against ALK positive human NCI-H2228 cells xenografted in SCID beige mouse assessed as inhibition of tumor growth administered orally once daily for 21 days; assay type: functional, cell-based; details: dose 10-50 mg/kg, route po, time 21.0 day
# [4] = target: Tyrosine-protein kinase Fes/Fps (Homo sapiens, UniProt P07332); assay: Inhibition of human FES using poly (Glu, Tyr)4:1 as substrate in presence of [gamma33P]-ATP by HotSpot assay
# [5] = target: Aurora kinase B (Homo sapiens, UniProt Q96GD4); assay: Inhibition of human AURKB using H-LRRASLG as substrate in presence of [gamma33P]-ATP by HotSpot assay
# [6] = target: Mitogen-activated protein kinase 14 (Homo sapiens) (UniProt Q16539); assay: Inhibition of human P38alpha T106M mutant at 1 uM using poly (Glu, Tyr)4:1 as substrate in presence of [gamma33P]-ATP by HotSpot assay relative to control
# [7] = target: Vascular endothelial growth factor receptor 1 (Homo sapiens) (UniProt P17948); assay: Inhibition of human FLT1 at 1 uM using poly (Glu, Tyr)4:1 as substrate in presence of [gamma33P]-ATP by HotSpot assay relative to control
# [8] = tested on: EML4-ALK (Homo sapiens), Q9UM73+Q9HC35 [G1202R]; details: BaF3, time 3-5 weeks
# [9] = target: Tyrosine-protein kinase CSK (Homo sapiens, UniProt P41240); assay: Inhibition of human CSK at 1 uM using poly (Glu, Tyr)4:1 as substrate in presence of [gamma33P]-ATP by HotSpot assay relative to control
# [10] = target: MAP/microtubule affinity-regulating kinase 3 (Homo sapiens, UniProt P27448); assay: Inhibition of human MARK3 using KKKVSRSGLYRSPSMPENLNRPR as substrate in presence of [gamma33P]-ATP by HotSpot assay
# [11] = tested on: KARPAS-299; assay: Inhibition of ERK phosphorylation in ALK-positive human KARPAS-299 cells at 1 to 1000 nM incubated for 1 hrs by immunoblot analysis; assay type: cell-based; details: dose 1-1000 nM
# [12] = target: Calcium/calmodulin-dependent protein kinase type IV (Homo sapiens) (UniProt Q16566); assay: Inhibition of human CAMK4 at 1 uM using KKLNRTLSFAEPG as substrate in presence of [gamma33P]-ATP by HotSpot assay relative to control
# [13] = target: CDK6/cyclin D1 (Homo sapiens) (UniProt P24385+Q00534); assay: Inhibition of human CDK6/CyclinD1 at 1 uM using RB protein as substrate in presence of [gamma33P]-ATP by HotSpot assay relative to control; assay type: protein-complex assay
# [14] = target: Casein kinase I isoform gamma-3 (Homo sapiens) (UniProt Q9Y6M4); assay: Inhibition of human CSNK1G3 at 1 uM using KRRRAL[pS]VASLPGL as substrate in presence of [gamma33P]-ATP by HotSpot assay relative to control
# [15] = target: Dual specificity tyrosine-phosphorylation-regulated kinase 3 (Homo sapiens) (UniProt O43781); assay: Inhibition of human DYRK3 at 1 uM using RRRFRPASPLRGPPK as substrate in presence of [gamma33P]-ATP by HotSpot assay relative to control
# [16] = target: Serine/threonine-protein kinase BRSK1 (Homo sapiens, UniProt Q8TDC3); assay: Inhibition of human BRSK1 using KKKVSRSGLYRSPSMPENLNRPR as substrate in presence of [gamma33P]-ATP by HotSpot assay
# [17] = tested on: BaF3; assay: In vivo inhibition of ALK signaling in mouse implanted with mouse BaF3 cells expressing EML4-ALK G1202R mutant assessed as inhibition of ALK phosphorylation at 25 mg/kg, po administered as single dose and measured at 6 to 24 hrs by ELISA; assay type: functional, organism-based; details: time 6-24 hrs
# [18] = Average plasma concentration in CB-17/SCID mouse implanted with mouse BaF3 cells expressing EML4-ALK G1202R mutant at 25 mg/kg, po administered once daily for 7 days by LC-MS/MS analysis; assay type: ADME, organism-based; details: in vivo, 168 h, time 7 day
# [19] = target: Tyrosine-protein kinase JAK3 (Homo sapiens) (UniProt P52333); assay: Inhibition of human JAK3 at 1 uM using MBP as substrate in presence of [gamma33P]-ATP by HotSpot assay relative to control
# [20] = target: Calcium/calmodulin-dependent protein kinase type 1 (Homo sapiens) (UniProt Q14012); assay: Inhibition of human CAMK1a at 1 uM using KKALRRQETVDAL as substrate in presence of [gamma33P]-ATP by HotSpot assay relative to control
# [21] = tested on: EML4-ALK (Homo sapiens), Q9UM73+Q9HC35 [UNDEFINED MUTATION]; details: BaF3, time 3-5 weeks
# [22] = tested on: NCI-H2228; assay: Antitumor activity against ALK positive human NCI-H2228 cells xenografted in CB-17/SCID orthotopic brain tumor mouse model assessed as median survival time at 50 mg/kg po administered daily and measured after 64 days (reference value: 28 days); assay type: functional; details: time 64 day
# [23] = tested on: EML4-ALK (Homo sapiens), Q9UM73+Q9HC35 [L1196M]; details: BaF3, dose 500.0 nmol/L, time 3-5 weeks
# [24] = target: Tyrosine-protein kinase JAK2 (Homo sapiens, UniProt O60674); assay: Inhibition of human JAK2 using poly (Glu, Tyr)4:1 as substrate in presence of [gamma33P]-ATP by HotSpot assay
# [25] = tested on: EML4-ALK (Homo sapiens), Q9UM73+Q9HC35 [F1174C]; details: BaF3, dose 200.0 nmol/L, time 3-5 weeks
# [26] = Average plasma concentration in CB-17/SCID mouse at 25 mg/kg administered once a day for 4 days by LC-MS/MS analysis; assay type: ADME, organism-based; details: in vivo, 96 h, time 4 day
# [27] = Average plasma concentration in CB-17/SCID mouse implanted with mouse BaF3 cells expressing EML4-ALK G1202R mutant at 50 mg/kg, po administered once daily for 7 days by LC-MS/MS analysis; assay type: ADME, organism-based; details: in vivo, 168 h, time 7 day
# [28] = tested on: NCI-H2228; assay: Antitumor activity against ALK positive human NCI-H2228 cells xenografted in SCID beige mouse assessed as tumor regression at 10 to 50 mg/kg, po administered once daily for 21 days and measured 28 days after treatment; assay type: functional, organism-based; details: dose 10-50 mg/kg, time 28.0 day
# Sequence of Tyrosine-protein kinase JAK3 (Homo sapiens) (P52333 whole entry): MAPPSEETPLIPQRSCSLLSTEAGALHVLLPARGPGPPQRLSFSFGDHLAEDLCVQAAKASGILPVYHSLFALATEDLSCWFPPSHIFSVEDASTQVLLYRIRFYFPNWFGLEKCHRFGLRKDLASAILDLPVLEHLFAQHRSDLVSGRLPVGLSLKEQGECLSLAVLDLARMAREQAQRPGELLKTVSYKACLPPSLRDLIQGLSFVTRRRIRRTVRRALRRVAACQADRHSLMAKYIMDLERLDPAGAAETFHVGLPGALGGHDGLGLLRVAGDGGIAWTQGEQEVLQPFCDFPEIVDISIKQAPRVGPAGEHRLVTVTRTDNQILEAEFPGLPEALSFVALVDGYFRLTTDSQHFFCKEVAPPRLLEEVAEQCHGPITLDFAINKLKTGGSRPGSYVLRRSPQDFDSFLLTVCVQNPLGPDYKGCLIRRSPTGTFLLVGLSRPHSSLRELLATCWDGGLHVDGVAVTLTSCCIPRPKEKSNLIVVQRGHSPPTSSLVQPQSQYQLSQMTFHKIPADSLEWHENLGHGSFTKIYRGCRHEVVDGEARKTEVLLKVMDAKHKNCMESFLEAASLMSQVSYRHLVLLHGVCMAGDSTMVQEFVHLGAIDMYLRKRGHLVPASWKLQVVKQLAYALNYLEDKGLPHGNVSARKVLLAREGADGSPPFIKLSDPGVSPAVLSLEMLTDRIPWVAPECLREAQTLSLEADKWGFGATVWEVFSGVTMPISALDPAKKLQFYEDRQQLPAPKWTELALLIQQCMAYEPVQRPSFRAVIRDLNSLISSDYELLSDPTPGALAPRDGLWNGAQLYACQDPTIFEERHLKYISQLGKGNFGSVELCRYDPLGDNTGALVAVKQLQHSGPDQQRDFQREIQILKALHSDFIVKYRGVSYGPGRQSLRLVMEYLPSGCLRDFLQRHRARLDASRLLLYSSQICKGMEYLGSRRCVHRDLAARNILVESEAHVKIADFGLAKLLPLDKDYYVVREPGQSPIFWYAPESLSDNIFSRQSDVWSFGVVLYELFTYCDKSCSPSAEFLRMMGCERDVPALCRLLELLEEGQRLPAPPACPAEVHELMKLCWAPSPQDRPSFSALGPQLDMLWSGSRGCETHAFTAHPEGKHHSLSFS
# Sequence of Tyrosine-protein kinase CSK (P41240 2-450 limits assumed): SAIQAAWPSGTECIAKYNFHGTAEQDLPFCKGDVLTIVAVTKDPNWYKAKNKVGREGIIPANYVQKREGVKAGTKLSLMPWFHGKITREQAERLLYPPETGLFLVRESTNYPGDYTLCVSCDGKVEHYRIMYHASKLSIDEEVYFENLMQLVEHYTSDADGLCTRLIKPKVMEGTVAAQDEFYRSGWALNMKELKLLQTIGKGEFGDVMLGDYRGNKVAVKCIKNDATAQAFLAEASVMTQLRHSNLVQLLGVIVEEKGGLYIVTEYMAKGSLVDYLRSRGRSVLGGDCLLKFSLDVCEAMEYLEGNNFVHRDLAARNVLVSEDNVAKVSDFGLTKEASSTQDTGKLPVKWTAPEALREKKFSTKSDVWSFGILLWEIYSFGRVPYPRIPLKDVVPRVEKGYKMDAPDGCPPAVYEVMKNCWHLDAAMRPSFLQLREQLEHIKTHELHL
# Sequence of Casein kinase I isoform gamma-3 (Homo sapiens) (Q9Y6M4 whole entry, looked up, canonical isoform): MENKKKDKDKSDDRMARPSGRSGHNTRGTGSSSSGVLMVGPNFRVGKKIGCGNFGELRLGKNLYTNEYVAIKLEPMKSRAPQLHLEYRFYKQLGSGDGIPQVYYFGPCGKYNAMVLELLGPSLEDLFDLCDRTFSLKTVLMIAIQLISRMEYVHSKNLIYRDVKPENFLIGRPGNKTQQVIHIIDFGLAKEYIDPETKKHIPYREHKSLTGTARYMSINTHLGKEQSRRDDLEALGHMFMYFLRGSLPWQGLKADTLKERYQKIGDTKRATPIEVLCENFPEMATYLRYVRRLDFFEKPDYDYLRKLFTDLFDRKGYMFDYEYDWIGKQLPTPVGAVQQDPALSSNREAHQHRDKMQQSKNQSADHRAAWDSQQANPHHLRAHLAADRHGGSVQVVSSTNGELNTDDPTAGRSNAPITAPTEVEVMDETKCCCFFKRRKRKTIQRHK
# Sequence of Dual specificity tyrosine-phosphorylation-regulated kinase 3 (Homo sapiens) (O43781 whole entry): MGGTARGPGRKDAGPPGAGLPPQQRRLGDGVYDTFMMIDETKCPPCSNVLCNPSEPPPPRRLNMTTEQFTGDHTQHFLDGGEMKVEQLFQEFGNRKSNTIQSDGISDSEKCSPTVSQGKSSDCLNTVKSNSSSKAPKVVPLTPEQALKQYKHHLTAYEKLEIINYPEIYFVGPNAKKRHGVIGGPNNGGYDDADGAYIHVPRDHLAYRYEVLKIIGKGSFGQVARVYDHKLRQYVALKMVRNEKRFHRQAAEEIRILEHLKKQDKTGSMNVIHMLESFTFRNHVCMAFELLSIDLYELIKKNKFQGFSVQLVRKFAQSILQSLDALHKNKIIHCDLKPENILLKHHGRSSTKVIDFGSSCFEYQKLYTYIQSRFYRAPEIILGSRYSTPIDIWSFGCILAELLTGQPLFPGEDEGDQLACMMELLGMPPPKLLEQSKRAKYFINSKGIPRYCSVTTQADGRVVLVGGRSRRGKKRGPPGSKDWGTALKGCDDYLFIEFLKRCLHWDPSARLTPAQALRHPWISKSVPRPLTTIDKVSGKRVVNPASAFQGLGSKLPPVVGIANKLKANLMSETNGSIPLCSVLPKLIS
# Sequence of Myosin light chain kinase 2, skeletal/cardiac muscle (Homo sapiens) (Q9H1R3 whole entry): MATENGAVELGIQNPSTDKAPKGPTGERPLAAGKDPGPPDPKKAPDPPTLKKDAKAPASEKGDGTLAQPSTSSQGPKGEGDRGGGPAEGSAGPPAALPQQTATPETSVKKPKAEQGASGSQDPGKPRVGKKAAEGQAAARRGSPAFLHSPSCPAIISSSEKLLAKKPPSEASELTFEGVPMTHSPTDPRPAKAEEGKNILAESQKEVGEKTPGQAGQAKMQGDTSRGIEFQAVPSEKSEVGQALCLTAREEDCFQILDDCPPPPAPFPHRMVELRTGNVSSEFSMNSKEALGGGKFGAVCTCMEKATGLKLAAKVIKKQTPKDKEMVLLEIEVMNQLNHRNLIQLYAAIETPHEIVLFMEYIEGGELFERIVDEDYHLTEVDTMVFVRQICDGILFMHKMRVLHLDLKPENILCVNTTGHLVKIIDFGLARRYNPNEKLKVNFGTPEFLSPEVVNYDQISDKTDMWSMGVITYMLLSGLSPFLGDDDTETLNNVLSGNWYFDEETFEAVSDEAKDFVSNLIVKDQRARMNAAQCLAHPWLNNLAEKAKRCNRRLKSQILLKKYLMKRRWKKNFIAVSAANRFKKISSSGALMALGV
# Sequence of Calcium/calmodulin-dependent protein kinase type IV (Homo sapiens) (Q16566 whole entry): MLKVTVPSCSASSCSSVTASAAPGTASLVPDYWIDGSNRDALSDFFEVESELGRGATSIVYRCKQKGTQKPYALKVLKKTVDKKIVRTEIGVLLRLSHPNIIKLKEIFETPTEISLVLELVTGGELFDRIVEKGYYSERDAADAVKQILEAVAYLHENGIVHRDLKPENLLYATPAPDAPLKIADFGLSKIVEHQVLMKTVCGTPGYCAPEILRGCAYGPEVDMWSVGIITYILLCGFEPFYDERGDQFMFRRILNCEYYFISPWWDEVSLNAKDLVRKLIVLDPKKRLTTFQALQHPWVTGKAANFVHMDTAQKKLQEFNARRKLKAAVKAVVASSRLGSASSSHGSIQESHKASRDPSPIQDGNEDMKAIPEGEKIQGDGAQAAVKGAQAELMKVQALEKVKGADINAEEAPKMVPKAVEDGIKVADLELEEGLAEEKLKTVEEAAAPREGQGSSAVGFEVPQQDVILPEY
# Sequence of Serine/threonine-protein kinase BRSK1 (Q8TDC3 whole entry): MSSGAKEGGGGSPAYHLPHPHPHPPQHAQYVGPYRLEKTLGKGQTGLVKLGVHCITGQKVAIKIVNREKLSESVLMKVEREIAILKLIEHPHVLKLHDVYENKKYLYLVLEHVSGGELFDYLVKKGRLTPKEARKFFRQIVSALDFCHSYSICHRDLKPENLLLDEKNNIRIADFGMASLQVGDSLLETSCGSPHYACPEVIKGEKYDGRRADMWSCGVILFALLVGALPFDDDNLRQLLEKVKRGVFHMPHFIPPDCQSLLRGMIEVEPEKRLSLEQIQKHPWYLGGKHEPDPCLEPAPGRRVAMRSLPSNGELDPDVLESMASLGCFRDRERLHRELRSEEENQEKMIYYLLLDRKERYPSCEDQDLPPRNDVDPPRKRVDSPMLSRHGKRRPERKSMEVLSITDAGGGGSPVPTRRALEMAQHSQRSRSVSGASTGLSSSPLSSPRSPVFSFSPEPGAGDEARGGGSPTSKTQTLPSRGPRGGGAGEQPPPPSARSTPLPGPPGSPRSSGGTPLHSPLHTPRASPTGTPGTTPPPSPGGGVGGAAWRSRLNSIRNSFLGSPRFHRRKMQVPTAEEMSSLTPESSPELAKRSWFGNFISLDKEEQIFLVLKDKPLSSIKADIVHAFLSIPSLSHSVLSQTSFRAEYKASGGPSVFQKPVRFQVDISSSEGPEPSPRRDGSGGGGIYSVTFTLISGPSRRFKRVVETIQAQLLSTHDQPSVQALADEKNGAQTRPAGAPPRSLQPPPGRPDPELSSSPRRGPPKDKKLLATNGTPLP
# Sequence of Mitogen-activated protein kinase 14 (Homo sapiens) (Q16539 whole entry): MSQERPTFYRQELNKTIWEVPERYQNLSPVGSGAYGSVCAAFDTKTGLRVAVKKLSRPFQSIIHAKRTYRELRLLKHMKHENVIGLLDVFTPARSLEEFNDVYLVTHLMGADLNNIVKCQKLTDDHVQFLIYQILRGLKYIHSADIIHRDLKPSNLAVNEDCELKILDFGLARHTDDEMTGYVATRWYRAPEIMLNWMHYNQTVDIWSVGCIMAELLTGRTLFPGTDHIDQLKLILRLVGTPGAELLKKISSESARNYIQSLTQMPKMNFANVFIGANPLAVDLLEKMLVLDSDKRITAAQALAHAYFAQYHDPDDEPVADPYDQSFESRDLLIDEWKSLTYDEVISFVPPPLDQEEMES
smiles,measurement,setting,value
COc1cc(N2CCC(N3CCN(C)CC3)CC2)ccc1Nc1ncc(Cl)c(Nc2ccccc2P(C)(C)=O)n1 [BRIGATINIB],inhibition,[1],< 90%
same,inhibition,[2],Active
same,Activity,[3],Dose-Dependent Effect
same,pIC50,[4],8.46
same,pIC50,[5],< 6.00
same,inhibition,[6],< 90%
same,inhibition,[7],< 90%
same,IC90,[8],762 nM
same,inhibition,[9],< 90%
same,pIC50,[10],6.90
same,inhibition,[11],Active
same,inhibition,[12],< 90%
same,inhibition,[13],< 90%
same,inhibition,[14],< 90%
same,inhibition,[15],< 90%
same,pIC50,[16],6.47
same,inhibition,[17],Active
same,Cave,[18],2546 nM
same,inhibition,[19],< 90%
same,inhibition,[20],< 90%
same,IC90,[21],416 nM
same,MSD,[22],>64 days
same,inhibition,[23],Active
same,pIC50,[24],6.81
same,inhibition,[25],inactive
same,Cave,[26],844 nM
same,Cave,[27],5151 nM
same,Activity,[28],Active
